# Where “and” joins values, the source holds several entries; their conditions need not be identical. Equal values may be shown once. Read-outs that look alike come from different tables or passages of the source.
# Columns and labels:
# [1] = test system: CFA-induced paw radiant heat hypersensitivity; experiment: CFA-induced paw radiant heat hypersensitivity; format: in vivo, rat; details: for inhibition in vivo at 100 mg/kg: Rattus norvegicus; for maximum % reversal: time not printed (last time point 100 min)
# [2] = test system: acetic acid-induced abdominal stretches; experiment: Mouse graded abdominal irritant test (GrAIT); format: in vivo; details: 10% Solutol, 30 min pretreatment
# delta opioid receptor [3] = target: T1, delta opioid receptor (Rattus norvegicus, UniProt P33533); experiment: Rat brain delta opioid receptor binding assay; details: rat forebrain, [3H]naltrindole ligand
# T1 construct: the forebrains were homogenized in Tris buffer in a Teflon®-glass homogenizer; from tissue; host or cells: forebrain of male Wistar rats, particulate (membrane) preparation
# T1 sequence (P33533 whole entry): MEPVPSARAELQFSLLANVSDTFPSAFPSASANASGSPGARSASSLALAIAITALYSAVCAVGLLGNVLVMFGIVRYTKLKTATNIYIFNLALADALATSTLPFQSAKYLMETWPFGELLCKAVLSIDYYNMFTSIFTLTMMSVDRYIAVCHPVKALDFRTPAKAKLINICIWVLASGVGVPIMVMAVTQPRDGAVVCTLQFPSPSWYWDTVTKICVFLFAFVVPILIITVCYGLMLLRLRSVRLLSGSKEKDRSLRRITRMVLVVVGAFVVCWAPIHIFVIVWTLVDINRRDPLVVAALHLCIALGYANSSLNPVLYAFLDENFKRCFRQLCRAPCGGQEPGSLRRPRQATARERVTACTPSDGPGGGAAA
# mu opioid receptor = target: T2, mu opioid receptor (Rattus norvegicus, UniProt P33535); experiment: Rat brain mu opioid receptor binding assay; details: rat forebrain, [3H]DAMGO ligand
# T2 construct: the forebrains were homogenized in Tris buffer in a Teflon®-glass homogenizer; from tissue; host or cells: forebrain of male Wistar rats, particulate (membrane) preparation
# T2 sequence (P33535 whole entry): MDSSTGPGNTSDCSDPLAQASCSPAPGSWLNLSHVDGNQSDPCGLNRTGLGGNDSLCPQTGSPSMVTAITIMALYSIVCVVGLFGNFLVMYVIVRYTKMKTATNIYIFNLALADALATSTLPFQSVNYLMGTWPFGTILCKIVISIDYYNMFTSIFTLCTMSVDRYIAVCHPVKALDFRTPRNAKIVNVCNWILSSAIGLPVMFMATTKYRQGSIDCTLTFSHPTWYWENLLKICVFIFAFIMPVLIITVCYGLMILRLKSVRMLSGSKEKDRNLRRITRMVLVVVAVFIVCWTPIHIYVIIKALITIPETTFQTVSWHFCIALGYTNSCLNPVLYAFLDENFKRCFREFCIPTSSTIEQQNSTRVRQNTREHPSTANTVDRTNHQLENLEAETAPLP
# [4] = target: hMOR (mu opioid receptor) (Homo sapiens, UniProt P35372); experiment: [35S]GTPγS binding assays in CHO-hMOR cell membranes (mu opioid functional assay); format: biochemical; details: for inhibition at 10 µM: read-out: GTPγS μ-opioid receptor % Inh @10 μM
# Sequence of hMOR (mu opioid receptor) (P35372 whole entry, looked up): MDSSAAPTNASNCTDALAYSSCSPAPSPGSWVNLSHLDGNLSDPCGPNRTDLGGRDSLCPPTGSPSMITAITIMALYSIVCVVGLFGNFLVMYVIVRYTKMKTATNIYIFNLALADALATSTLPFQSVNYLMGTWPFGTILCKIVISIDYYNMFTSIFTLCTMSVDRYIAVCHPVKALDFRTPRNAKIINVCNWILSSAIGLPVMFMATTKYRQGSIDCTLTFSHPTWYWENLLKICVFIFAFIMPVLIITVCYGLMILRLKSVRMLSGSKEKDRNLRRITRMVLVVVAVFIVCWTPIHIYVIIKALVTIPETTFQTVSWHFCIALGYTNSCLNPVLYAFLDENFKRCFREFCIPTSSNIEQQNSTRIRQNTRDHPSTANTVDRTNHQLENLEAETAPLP
# delta opioid receptor [5] = target: T3, delta opioid receptor (Mus musculus, UniProt P32300); experiment: [35S]GTPγS binding assay in NG108-15 cell membranes (delta opioid functional assay), 200 nM screen; format: biochemical; details: for EC50: GTPγS δ-opioid receptor EC50 (μM), averages if tested more than once; for EC50 / GTPγS δ-opioid receptor Rel Efficacy: NG108-15 cell membranes; for GTPγS δ-opioid receptor Rel Efficacy: relative efficacy from dose response
# T3 construct: NG108-15 cell membranes were purchased from Applied Cell Sciences (Rockville, Md.); host or cells: NG108-15 cell membranes
# T3 sequence (P32300 whole entry): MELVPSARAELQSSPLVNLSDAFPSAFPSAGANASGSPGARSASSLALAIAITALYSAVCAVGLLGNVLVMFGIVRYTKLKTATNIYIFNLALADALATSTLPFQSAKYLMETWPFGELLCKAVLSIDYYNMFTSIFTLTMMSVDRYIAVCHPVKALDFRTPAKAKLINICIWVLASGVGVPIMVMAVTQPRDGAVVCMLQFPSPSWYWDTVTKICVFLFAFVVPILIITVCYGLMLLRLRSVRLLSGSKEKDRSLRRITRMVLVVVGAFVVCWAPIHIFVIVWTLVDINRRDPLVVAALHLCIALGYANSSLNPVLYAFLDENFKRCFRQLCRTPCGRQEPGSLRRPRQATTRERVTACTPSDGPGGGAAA
# delta opioid receptor [6] = target: T3, delta opioid receptor; experiment: NG108-15, 24-well delta opioid receptor binding assay
# [7] = δ-binding (Naltrindole ligand) Ki
# [8] = po, 1 h, read-out: maximum % reversal @ time (min), rat, 100 mg/kg p.o., 0.5% HPMC, @ 60 min
# [9] = po, 3 h, read-out: maximum % reversal @ time (min), rat, 100 mg/kg p.o., 0.5% HPMC, @ 180 min, Algos (contract lab) study
compound,measurement,setting,value
COc1ccc(Oc2nc(-c3cncnc3)ncc2NC[C@@H]2CCCN2)cc1 [Cpd 23],ED50,"[1]; po, 2 h, rat, p.o., 0.5% HPMC, doses 10, 30, 100, 300 mg/kg, time point 120 min, read-out: ED50",35.4 mg/kg
same,# abdominal stretches (compound),[2]; 30 mg/kg s.c.,16.7
same,Ki,delta opioid receptor [3]; read-out: δ-binding (Naltrindole ligand) Ki,1.25 nM
same,Ki,mu opioid receptor; read-out: μ-binding Ki,214 nM
COc1ccc(Oc2nc(-c3ccc(F)nc3)ncc2NC[C@@H]2CCCN2)cc1 [Cpd 25],# abdominal stretches (compound),[2]; 30 mg/kg s.c.,12.3
same,Ki,delta opioid receptor [3]; [7],0.308 nM
same,Ki,mu opioid receptor; read-out: μ-binding Ki,616 nM
COc1ccc(Oc2nc(-c3cccnc3)ncc2NC[C@@H]2CCCN2)cc1 [Cpd 8],inhibition at 10 µM,[4],2.48%
same,inhibition in vivo at 100 mg/kg,[1]; [8],46.5%
same,inhibition in vivo at 100 mg/kg,[1]; [9],75.1%
same,maximum % reversal,"[1]; rat, 30 mg/kg p.o., 0.5% HPMC",49.0%
same,maximum % reversal,"[1]; rat, 100 mg/kg p.o., 0.5% HPMC",64.8%
same,EC50,delta opioid receptor [5],0.0681 µM
same,inhibition at 10 µM,delta opioid receptor [5]; read-out: GTPγS δ-opioid receptor % Inh @10 μM,23.6%
same,GTPγS δ-opioid receptor Rel Efficacy,delta opioid receptor [5],0.848
same,# abdominal stretches (compound),[2]; 30 mg/kg s.c.,18.9
same,Ki,delta opioid receptor [3]; [7],6.19 nM
same,Ki,mu opioid receptor; μ-binding Ki,42.8 nM
COc1ccc(Oc2nc(-c3cccnc3F)ncc2NC[C@@H]2CCCN2)cc1 [Cpd 24],# abdominal stretches (compound),[2]; 30 mg/kg s.c.,16.9
same,Ki,delta opioid receptor [3]; [7],1 nM
same,Ki,mu opioid receptor; read-out: μ-binding Ki,1060 nM
COc1ccc(Oc2nc(-c3ccc(OC)nc3)ncc2NC[C@@H]2CCCN2)cc1 [Cpd 22],# abdominal stretches (compound),[2]; 30 mg/kg s.c.,18.6 and 16.0
same,# abdominal stretches (compound),[2]; 100 mg/kg s.c.,17.4
same,# abdominal stretches (compound),[2]; 300 mg/kg s.c.,20.3
same,Ki,delta opioid receptor [3]; [7],0.909 nM
same,Ki,mu opioid receptor; read-out: μ-binding Ki,1100 nM
COc1ccc(Oc2nc(-c3cncc(C#N)c3)ncc2NC[C@@H]2CCCN2)cc1 [Cpd 69],EC50,[4],> 10000 nM
same,inhibition at 10 µM,[4],22.8%
same,inhibition in vivo at 100 mg/kg,[1]; [8],10.1%
same,inhibition in vivo at 100 mg/kg,"[1]; po, 1 h, read-out: maximum % reversal @ time (min), rat, 100 mg/kg p.o., 0.5% HPMC, @ 60 min, Algos (contract lab) study",55.7%
same,inhibition in vivo at 100 mg/kg,[1]; [9],65.4%
same,Ki,delta opioid receptor [6],0.139 nM
same,EC50,delta opioid receptor [5],0.0085 µM
same,GTPγS δ-opioid receptor Rel Efficacy,delta opioid receptor [5],1.004
same,Ki,delta opioid receptor [3]; [7],4.1 nM
same,Ki,mu opioid receptor; μ-binding Ki,196 nM
COc1ccc(Oc2nc(-c3cnc4ccccc4c3)ncc2NC[C@@H]2CCCN2)cc1 [Cpd 20],# abdominal stretches (compound),[2]; 30 mg/kg s.c.,19.8
same,Ki,delta opioid receptor [3]; [7],4.93 nM
same,Ki,mu opioid receptor; read-out: μ-binding Ki,146 nM
COc1ccc(Oc2nc(-c3cccnc3OC)ncc2NC[C@@H]2CCCN2)cc1 [Cpd 26],# abdominal stretches (compound),[2]; 30 mg/kg s.c.,16.7
same,Ki,delta opioid receptor [3]; [7],8 nM
same,Ki,mu opioid receptor; read-out: μ-binding Ki,4050 nM
